The data set can be described thus: first clinical trials, oral administration, plasma levels. Type of data set: in vivo.
Setting [1] is: conventional tablets containing the compound of formula (I), first clinical trials.

From patent publication US20050038077A1, “Tablet containing 3-[(2-{[4-(hexyloxycarbonylamino-imino-methyl)-phenylamino]-methyl}-1-methyl-1H- benzimidazol-5-carbonyl)-pyridin-2-yl-amino]-propionic acid ethylester or the salts thereof” (Boehringer Ingelheim International GmbH, priority 2003, published 2005) come the findings set out here.

With `CCCCCCOC(=O)NC(=N)c1ccc(NCc2nc3cc(C(=O)N(CCC(=O)OCC)c4ccccn4)ccc3n2C)cc1` [compound of formula (I), ethyl 3-[(2-{[4-(hexyloxycarbonylaminoiminomethyl)phenylamino]methyl}-1-methyl-1H-benzimidazole-5-carbonyl)pyridin-2-ylamino]propionate], the malabsorption result is, setting by setting: (administered as an oral solution) “no instances of malabsorption have been observed”; under setting [1], “individual cases of malabsorption”. For the same compound, the “variability of the plasma level patterns” value (administered as an oral solution, compared with conventional tablets) is on record as “significantly lower”. Further, under setting [1], the “variability of plasma levels” value is “highly variable plasma levels”.
